PubChem BioAssay AID328 (DTP/NCI, 2004)
Where “and” joins values, the source holds several entries; their conditions need not be identical. Equal values may be shown once. Inconclusive results and toxic doses are left out.

Test system: BDF1 mice, P388 leukemia ip, median survival T/C
Test: NCI In Vivo Anticancer Drug Screen. Data for tumor model P388 Leukemia (intraperitoneal) in B6D2F1 (BDF1) mice
Conditions: endpoint: median survival time, higher = longer survival
Procedure, shortened: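 Steps: implant the tumour, treat one group with compound and another with vehicle, record survival, then divide treated by control.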

[1] = dose: 50.0 mg/kg/injection, schedule: Q01DX009 (ip), vehicle: saline with Tween-80
[2] = dose: 100.0 mg/kg/injection, schedule: Q01DX009 (ip), vehicle: saline with Tween-80
[3] = dose: 200.0 mg/kg/injection, schedule: Q01DX009 (ip), vehicle: saline with Tween-80
[4] = dose: 100.0 mg/kg/injection, schedule: Q04DX003 (ip), vehicle: Klucel (hydroxypropylcellulose) (HPC)
[5] = dose: 200.0 mg/kg/injection, schedule: Q04DX003 (ip), vehicle: Klucel (hydroxypropylcellulose) (HPC)
[6] = dose: 400.0 mg/kg/injection, schedule: Q04DX003 (ip), vehicle: Klucel (hydroxypropylcellulose) (HPC)
[7] = dose: 100.0 mg/kg/injection, schedule: Q01DX009 (ip), vehicle: Klucel (hydroxypropylcellulose) (HPC)
[8] = dose: 200.0 mg/kg/injection, schedule: Q01DX009 (ip), vehicle: Klucel (hydroxypropylcellulose) (HPC)

With `CC1=C(O)C(O)C2OC2C1=O` (stereo not drawn) the T/C (dose: 12.5 mg/kg/injection, schedule: Q01DX009 (ip), vehicle: saline) was 96 % of control, the T/C (dose: 25.0 mg/kg/injection, schedule: Q01DX009 (ip), vehicle: saline) was 87 % of control and the T/C (dose: 50.0 mg/kg/injection, schedule: Q01DX009 (ip), vehicle: saline) was 107 % of control.

For `CC(Oc1ccccc1-c1ccccc1)C(=O)N(C)C` (stereo not drawn), the T/C (dose: 12.5 mg/kg/injection, schedule: Q01DX009 (ip), vehicle: saline with Tween-80) was 100 % of control, the T/C [1] was 121 % of control and 124 % of control and the T/C [2] was 97 % of control and 105 % of control. For the same compound, the T/C [3] was 112 % of control.

For `CC[C@H]1CN2CCc3cc(OC)c(OC)cc3[C@@H]2C[C@@H]1C[C@H]1NCCc2c1[nH]c1ccc(OC)cc21`, the T/C (dose: 16.0 mg/kg/injection, schedule: Q04DX003 (ip), vehicle: saline) was 183 % of control, the T/C (dose: 18.0 mg/kg/injection, schedule: Q04DX003 (ip), vehicle: acid diluted with saline) was 166 % of control and the T/C (dose: 30.0 mg/kg/injection, schedule: Q04DX003 (ip), vehicle: acid diluted with saline) was 150 % of control. For the same compound, the T/C (dose: 32.0 mg/kg/injection, schedule: Q04DX003 (ip), vehicle: saline) was 186 % of control and the T/C (dose: 64.0 mg/kg/injection, schedule: Q04DX003 (ip), vehicle: saline) was 102 % of control.

`O=c1oc2cccc(O)c2c2c1CCCC2` was tested, and the T/C [4] was 100 % of control, the T/C [5] was 104 % of control and the T/C [6] was 100 % of control.

In the case of `C[C@]12C[C@@H](F)C(=O)C[C@@H]1CC[C@@H]1[C@@H]2CC[C@]2(C)[C@@H](O)CC[C@@H]12`, the T/C [2] is reported as 95 % of control, the T/C (dose: 100.0 mg/kg/injection, schedule: Q04DX003 (ip), vehicle: saline with Tween-80) is reported as 110 % of control and the T/C [3] is reported as 95 % of control. The T/C (dose: 200.0 mg/kg/injection, schedule: Q04DX003 (ip), vehicle: saline with Tween-80) was 100 % of control, the T/C (dose: 400.0 mg/kg/injection, schedule: Q01DX009 (ip), vehicle: saline with Tween-80) was 100 % of control and the T/C (dose: 400.0 mg/kg/injection, schedule: Q04DX003 (ip), vehicle: saline with Tween-80) was 105 % of control.

With `Cc1cc(C)cc(NCCC#N)c1` the T/C (dose: 100.0 mg/kg/injection, schedule: Q01DX009 (ip), vehicle: other) was 115 % of control, the T/C (dose: 200.0 mg/kg/injection, schedule: Q01DX009 (ip), vehicle: other) was 115 % of control and the T/C (dose: 400.0 mg/kg/injection, schedule: Q01DX009 (ip), vehicle: other) was 105 % of control.

In the case of `Clc1ccc(-c2noc(CN3CCCCC3)n2)cc1`, the T/C [1] is reported as 88 % of control and the T/C [2] is reported as 88 % of control.

For `CC(=O)C[n+]1ccccc1C(c1ccccc1)c1ccccc1`, the T/C (dose: 12.5 mg/kg/injection, schedule: Q01DX005 (ip), vehicle: saline) was 101 % of control, the T/C (dose: 25.0 mg/kg/injection, schedule: Q01DX005 (ip), vehicle: saline) was 92 % of control and the T/C (dose: 50.0 mg/kg/injection, schedule: Q01DX005 (ip), vehicle: saline) was 101 % of control.

`CCCCC(/C=C1/CCCCC1=O)CC` (stereo not drawn) was tested, and the T/C [7] was 95 % of control, the T/C [4] was 104 % of control and the T/C [8] was 87 % of control. For the same compound, the T/C [5] was 104 % of control, the T/C (dose: 400.0 mg/kg/injection, schedule: Q01DX009 (ip), vehicle: Klucel (hydroxypropylcellulose) (HPC)) was 91 % of control and the T/C [6] was 113 % of control.

In the case of `O=S1(=O)CCN(Cc2ccccc2)CC1`, the T/C (dose: 50.0 mg/kg/injection, schedule: Q01DX009 (ip), vehicle: Klucel (hydroxypropylcellulose) (HPC)) is reported as 96 % of control, the T/C [7] is reported as 96 % of control and the T/C [8] is reported as 91 % of control.
